Assay [1] concerns Dirofilaria immitis microfilariae. The assay can be described thus: Dirofilaria immitis microfilariae (DIROIM L1) motility. The note with it: 72 h, read-out: EC50 (reduction of motility).
The target in another assay is C. elegans Slo-1a (Caenorhabditis elegans, UniProt Q95V25). The conditions noted are these: pE50 (negative decadic logarithm of EC50), CHO cells expressing C. elegans Slo-1a; voltage sensitive dye, 70 mM KCl.
Another assay relates to Haemonchus contortus. As to the kind of experiment: Haemonchus contortus larval mortality. The note with it: 120 h, read-out: activity (percentage of larval mortality).
The next assay deals with Cooperia curticei. As to the kind of experiment: Cooperia curticei larval mortality. The note with it: 120 h, read-out: activity (percentage of larval mortality).
In a further assay the test system is Dirofilaria immitis. As to the kind of experiment: Dirofilaria immitis (DIROIM L4) larval motility. The conditions noted are these: 72 h, read-out: EC50 (reduction of motility).
The target of the next assay is D. immitis Slo-1 (Dirofilaria immitis, UniProt I0DFK5). As to the kind of experiment: D. immitis Slo-1, action at a recombinant CHO cell line (membrane potential, FLIPR). In kind it is cell-based.
D. immitis Slo-1, sequence (I0DFK5 1-1119): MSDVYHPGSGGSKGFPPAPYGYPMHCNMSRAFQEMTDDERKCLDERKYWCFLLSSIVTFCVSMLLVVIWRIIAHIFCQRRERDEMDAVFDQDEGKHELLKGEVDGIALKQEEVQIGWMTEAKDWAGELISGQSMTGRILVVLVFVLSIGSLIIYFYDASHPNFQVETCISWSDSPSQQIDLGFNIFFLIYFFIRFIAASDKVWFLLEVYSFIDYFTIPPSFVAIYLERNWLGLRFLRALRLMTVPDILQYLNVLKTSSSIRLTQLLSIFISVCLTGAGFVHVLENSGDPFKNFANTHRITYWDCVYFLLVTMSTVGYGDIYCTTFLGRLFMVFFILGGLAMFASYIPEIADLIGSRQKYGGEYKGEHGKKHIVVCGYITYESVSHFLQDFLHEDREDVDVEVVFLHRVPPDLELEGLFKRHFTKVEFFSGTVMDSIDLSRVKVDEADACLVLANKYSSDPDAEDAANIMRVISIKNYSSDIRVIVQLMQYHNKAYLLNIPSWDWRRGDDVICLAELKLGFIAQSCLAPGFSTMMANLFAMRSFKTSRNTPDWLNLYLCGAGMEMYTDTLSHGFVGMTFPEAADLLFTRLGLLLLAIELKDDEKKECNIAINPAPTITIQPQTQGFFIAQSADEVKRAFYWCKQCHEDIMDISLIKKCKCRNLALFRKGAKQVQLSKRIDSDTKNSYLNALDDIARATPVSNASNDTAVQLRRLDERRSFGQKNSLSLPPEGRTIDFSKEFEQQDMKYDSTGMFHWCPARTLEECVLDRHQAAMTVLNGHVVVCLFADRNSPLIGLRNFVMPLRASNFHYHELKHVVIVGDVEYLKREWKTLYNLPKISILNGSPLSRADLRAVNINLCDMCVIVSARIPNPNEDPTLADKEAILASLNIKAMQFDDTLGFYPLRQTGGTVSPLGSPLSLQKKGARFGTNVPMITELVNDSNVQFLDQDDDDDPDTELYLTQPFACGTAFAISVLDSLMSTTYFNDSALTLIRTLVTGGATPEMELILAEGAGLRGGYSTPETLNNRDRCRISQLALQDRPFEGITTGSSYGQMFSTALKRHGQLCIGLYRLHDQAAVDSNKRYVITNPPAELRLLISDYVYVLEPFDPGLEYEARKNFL
The subject of assay [2] is Nippostrongylus brasiliensis. As to the kind of experiment: Nippostrongylus brasiliensis (NIPOBR) adult worms, acetylcholine esterase readout. The note with it: read-out: activity (reduction of AChE compared to negative control); for inhibition at 1 µg/mL: at 1 μg/ml (1 ppm); for inhibition at 10 µg/mL: at 10 μg/ml (10 ppm). As to the method: In Vitro Assay 3: Nippostrongylus brasiliensis (NIPOBR)
Adult Nippostrongylus brasiliensis were washed with saline buffer containing 100 U/ml penicillin, 0.1 mg/ml streptomycin and 2.5 μg/ml amphotericin B. Test compounds were dissolved in DMSO and worms were incubated in medium in a final concentration of 10 μg/ml (10 ppm) respectively 1 μg/ml (1 ppm). An aliquot of the medium was used to determine the acetylcholine esterase activity in comparison to a negative control. The principle of measuring acetylcholine esterase as readout for anthelmintic activity was described in Rapson et al (1986) and Rapson et al (1987).

The test system of assay [3] is Litomosoides sigmodontis third-stage larvae. As to the kind of experiment: Litomosoides sigmodontis (LTMOSI L3) larval motility. The conditions noted are these: 72 h, read-out: EC50 (reduction of motility).
Experimental: In Vitro Assay 6: Litomosoides sigmodontis (LTMOSI L3)
10 Litomosoides sigmodontis third-stage larvae, which were freshly isolated from the pleural cavity of an infected rodent, were added to wells of a microtitre plate containing a nutrient medium and the test compound in DMSO. Compounds were tested in concentration-response assay in duplicate. Larvae exposed to DMSO and no test compounds were used as negative controls. Larvae were evaluated after 72 h of incubation with the compound. Efficacy was determined as the reduction of motility in comparison to the negative control. Based on the evaluation of a wide concentration range, concentration-response curves as well as EC50-values were calculated.

Some results are limits rather than exact numbers.

C. elegans Slo-1a, sequence (Q95V25 whole entry): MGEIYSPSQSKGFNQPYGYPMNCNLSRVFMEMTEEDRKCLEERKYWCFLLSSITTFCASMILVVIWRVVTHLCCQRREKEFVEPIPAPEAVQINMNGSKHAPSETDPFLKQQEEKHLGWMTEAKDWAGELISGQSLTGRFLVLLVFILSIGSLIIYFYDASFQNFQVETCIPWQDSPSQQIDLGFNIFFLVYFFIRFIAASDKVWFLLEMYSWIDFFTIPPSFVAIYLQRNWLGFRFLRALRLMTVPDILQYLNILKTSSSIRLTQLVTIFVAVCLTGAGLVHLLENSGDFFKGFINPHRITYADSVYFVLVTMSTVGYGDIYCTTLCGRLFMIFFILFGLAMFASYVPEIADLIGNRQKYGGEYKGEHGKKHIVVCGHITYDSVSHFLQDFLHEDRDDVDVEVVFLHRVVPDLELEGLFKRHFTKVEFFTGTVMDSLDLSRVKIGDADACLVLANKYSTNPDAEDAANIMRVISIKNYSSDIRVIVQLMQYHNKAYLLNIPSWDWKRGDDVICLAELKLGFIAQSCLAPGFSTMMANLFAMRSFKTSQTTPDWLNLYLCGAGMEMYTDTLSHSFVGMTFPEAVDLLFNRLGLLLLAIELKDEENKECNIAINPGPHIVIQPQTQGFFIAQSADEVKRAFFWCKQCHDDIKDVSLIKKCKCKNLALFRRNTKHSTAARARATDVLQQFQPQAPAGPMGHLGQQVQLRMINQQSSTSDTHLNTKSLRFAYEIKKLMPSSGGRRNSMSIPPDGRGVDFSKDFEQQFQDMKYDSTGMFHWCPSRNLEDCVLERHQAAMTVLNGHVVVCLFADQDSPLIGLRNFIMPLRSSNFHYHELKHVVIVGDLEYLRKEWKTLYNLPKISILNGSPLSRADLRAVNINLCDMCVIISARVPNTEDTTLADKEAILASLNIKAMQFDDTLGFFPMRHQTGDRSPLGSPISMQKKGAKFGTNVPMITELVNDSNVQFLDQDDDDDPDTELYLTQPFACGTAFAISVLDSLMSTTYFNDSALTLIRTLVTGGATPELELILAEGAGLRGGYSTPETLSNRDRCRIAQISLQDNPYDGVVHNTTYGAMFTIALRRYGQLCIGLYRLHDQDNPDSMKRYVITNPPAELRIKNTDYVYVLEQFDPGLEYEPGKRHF
Experimental for C. elegans Slo-1a: Generation of a Stable C. elegans CHO Cell Line
A CHO cell line was obtained from ATCC, code ATCC CRL-9096. […] The transfection solution included 300 μL OptiMEM (Life Technologies, Nr.: 31985), 2 μL (=6 μg) of plasmid DNA containing the C. elegans Slo 1a gene and 9 μL FugeneHD (Promega, Nr.: E2311), and was added to the cells prior to incubation for 48 hours at 37° C., 5% CO2. The transfection medium was exchanged for the selection medium which contains additional G418 (2 mg/ml, Invitrogen, Nr.: 10131) and the cells were seeded into 384 well plates (300 cells/well). After a few weeks, the remaining surviving cells were tested with a voltage sensitive dye (Membrane Potential Assay Kit, Molecular Devices Nr.: R8034) for K+ channel expression. Positive cell clones were purified by the limited dilution technique. For this the clone with the highest and most robust signal in the voltage sensitive dye assay was further subcloned (incubated) in 384 well plates (0.7 cells/well) in order to obtain clonal purity. This generated a final stable CHO cell line expressing the C. elegans Slo-1a.
Cells were cultured at 37° C. and 5% CO2 in MEMalpha with Gutamax I (Invitrogen, Nr.: 32571), supplemented with 10% (v/v) heat inactivated fetal bovine serum (Invitrogen, Nr.: 10500), G418 (1 mg/ml, Invitrogen, Nr.: 10131). Cells were detached using Accutase (Sigma, Nr.: A6964).
Membrane Potential Measurements
Laboratory compound testing was performed on 384-well microtiter plates (MTPs, Greiner, Nr.: 781092). 8000 cells/well were plated onto 384-well MTPs and cultured for 20 to 24 hours at 37° C. and 5% CO2. After removal of the cell culture medium, the cells were washed once with tyrode (150 mM NaCl, 0.3 mM KCl, 2 mM CaCl2, 1 mM MgCl2, 0.8 mM NaH2PO4, 5 mM Glucose, 28 mM Hepes, pH 7.4) and then loaded with the voltage sensitive dye of the Membrane Potential Assay Kit diluted in tyrode for 1 h at room temperature.
After starting the measurement of fluorescence using a FLIPR Tetra (Molecular Devices, Exc. 510-545 nm, Emm. 565-625 nm), test compounds were added followed by the addition of KCl tyrode (final assay concentration: 70 mM KCl, 2 mM CaCl2, 1 mM MgCl2, 0.8 mM NaH2PO4, 5 mM Glucose, 28 mM Hepes, pH 7.4, including the voltage sensitive dye). The measurement was completed after 7 minutes.
The data were evaluated by using the ActivityBase XLfit software (IDBS) for curve fitting and calculation of the half-maximal effective concentration (EC50) and are reported as negative decadic logarithm (pE50).
Experimental for Cooperia curticei: In Vitro Assay 6: Cooperia curticei
Solvent: Dimethyl Sulfoxide
Approximately 40 nematode larvae (Cooperia curticei) are transferred into a test tube containing the compound solution.
After 5 days percentage of larval mortality is recorded. 100% efficacy means all larvae are killed; 0% efficacy means no larvae are killed.
Experimental for Haemonchus contortus: In Vitro Assay 7: Haemonchus contortus
Solvent: Dimethyl Sulfoxide
Approximately 40 larvae of the red stomach worm (Haemonchus contortus) are transferred into a test tube containing compound solution.
After 5 days the percentage of larval mortality is recorded. 100% efficacy means all larvae are killed, 0% efficacy means no larvae are killed.

For the compound `CN(C)c1c(C(=O)N[C@H]2CCOc3ccccc32)cnc2c(-c3cccc(Cl)c3Cl)nccc12` [Example T1-2, 8-(2,3-Dichlorophenyl)-N-[(4S)-3,4-dihydro-2H-chromen-4-yl]-4-(dimethylamino)-1,7-naphthyridine-3-carboxamide], the 50% effective concentration (EC50) (usually the concentration at which the effect is half-maximal) in assay [1] was under 0.1 µg/mL; on C. elegans Slo-1a, 3.16 to 31.6 nM; in the assay on Dirofilaria immitis it was under 0.1 µg/mL; on D. immitis Slo-1 it was 31.6 to 316 nM. Besides, the figures for the mortality at 20 ppm with Haemonchus contortus and with Cooperia curticei were 90% and 100%, respectively. For the same compound, the mortality (commonly the share of the test organisms that died) at 4 ppm in the assay with Cooperia curticei is 100%. Also, the inhibition at 1 µg/mL in assay [2] was over 80%. In addition, the inhibition at 10 µg/mL in assay [2] was over 80%.

For the compound `O=C(N[C@H]1CCOc2ccccc21)c1cnc2c(-c3cc(Cl)cc(Cl)c3)nccc2c1N1CCOCC1` [Example T1-3, 8-(3,5-Dichlorophenyl)-N-[(4S)-3,4-dihydro-2H-chromen-4-yl]-4-(morpholin-4-yl)-1,7-naphthyridine-3-carboxamide], the EC50 in assay [1] was under 0.1 µg/mL; on C. elegans Slo-1a, 3.16 to 31.6 nM; in the assay with Dirofilaria immitis it was under 0.1 µg/mL; at D. immitis Slo-1, 31.6 to 316 nM. Also, the mortality at 20 ppm in the assay with Haemonchus contortus and in the assay on Cooperia curticei was 100% throughout. Moreover, the mortality at 4 ppm with Cooperia curticei worked out at 100%. The inhibition at 1 µg/mL in assay [2] was over 80%. In assay [2], the inhibition at 10 µg/mL is over 80%.

For `O=C(N[C@H]1CCOc2ccccc21)c1cnc2c(-c3cc(Cl)cc(Cl)c3Cl)nccc2c1N1CCOCC1` [Example T1-6, N-[(4S)-3,4-dihydro-2H-chromen-4-yl]-4-(morpholin-4-yl)-8-(2,3,5-trichlorophenyl)-1,7-naphthyridine-3-carboxamide], the EC50 was under 0.1 µg/mL in assay [1], under 3.16 nM at C. elegans Slo-1a, under 0.1 µg/mL in the assay on Dirofilaria immitis and 3.16 to 31.6 nM on D. immitis Slo-1. In addition, the mortality at 20 ppm with Haemonchus contortus and in the assay with Cooperia curticei was 100% in each case. Besides, the mortality at 4 ppm in the assay on Cooperia curticei is 100%. Further, the inhibition at 1 µg/mL in assay [2] was over 80%.

Regarding `CN(C)c1c(C(=O)N[C@H]2CCOc3ccccc32)cnc2c(-c3cc(F)cc(F)c3F)ncc(F)c12` [Example T1-12, N-[(4S)-3,4-dihydro-2H-1-benzopyran-4-yl]-4-(dimethylamino)-5-fluoro-8-(2,3,5-trifluorophenyl)-1,7-naphthyridine-3-carboxamide], the half-maximal effective concentration (EC50) in assay [1] was under 0.1 µg/mL; in assay [3], under 0.1 µg/mL; in the assay with Dirofilaria immitis, under 0.1 µg/mL; on D. immitis Slo-1 it was 31.6 to 316 nM. In assay [2], the inhibition at 1 µg/mL was over 80%. In assay [2], the inhibition at 10 µg/mL was over 80%.

Consider `CN(C)c1c(C(=O)N[C@H]2CCOc3ccccc32)cnc2c(-c3cc(Cl)cc(Cl)c3)cncc12` [Example T2-1, 8-(3,5-Dichlorophenyl)-N-[(4S)-3,4-dihydro-2H-chromen-4-yl]-4-(dimethylamino)-1,6-naphthyridine-3-carboxamide], for which the EC50 is under 0.1 µg/mL in assay [1], 3.16 to 31.6 nM at C. elegans Slo-1a, under 0.1 µg/mL with Dirofilaria immitis and 31.6 to 316 nM at D. immitis Slo-1. Further, the mortality at 20 ppm in the assay with Haemonchus contortus and with Cooperia curticei was 100% throughout. In addition, the mortality at 4 ppm in the assay with Cooperia curticei worked out at 100%. In assay [2], the inhibition at 1 µg/mL is over 80%.

As to `O=C(N[C@H]1CCOc2ccccc21)c1cnc2c(-c3cccc(Cl)c3Cl)cncc2c1N1CCOCC1` [Example T2-3, 8-(2,3-Dichlorophenyl)-N-[(4S)-3,4-dihydro-2H-chromen-4-yl]-4-(morpholin-4-yl)-1,6-naphthyridine-3-carboxamide], the EC50 in assay [1] is under 0.1 µg/mL; on C. elegans Slo-1a, 3.16 to 31.6 nM; in the assay with Dirofilaria immitis, under 0.1 µg/mL; at D. immitis Slo-1 it was 3.16 to 31.6 nM. Moreover, the mortality at 20 ppm was determined as 90% with Haemonchus contortus and 100% in the assay with Cooperia curticei. Besides, the mortality at 4 ppm in the assay with Cooperia curticei turned out to be 80%. Moreover, the inhibition at 1 µg/mL in assay [2] was over 80%.

In the case of `COc1ncc(-c2cc(Cl)cc(Cl)c2)c2ncc(C(=O)N[C@H]3CCOc4ccccc43)c(N(C)C)c12` [Example T2-5, 8-(3,5-dichlorophenyl)-N-[(4S)-3,4-dihydro-2H-1-benzopyran-4-yl]-4-(dimethylamino)-5-methoxy-1,6-naphthyridine-3-carboxamide], the EC50 was under 0.1 µg/mL in assay [1], under 0.1 µg/mL in assay [3], under 0.1 µg/mL with Dirofilaria immitis and 31.6 to 316 nM on D. immitis Slo-1. Moreover, the inhibition at 1 µg/mL in assay [2] was over 80%. Also, the inhibition at 10 µg/mL in assay [2] was over 80%.

For `O=C(N[C@H]1CCOc2ccccc21)c1cnc2c(-c3cc(Cl)cc(Cl)c3)ccnc2c1N1CCOCC1` [Example T3-2, 8-(3,5-Dichlorophenyl)-N-[(4S)-3,4-dihydro-2H-chromen-4-yl]-4-(morpholin-4-yl)-1,5-naphthyridine-3-carboxamide], the EC50 is under 0.1 µg/mL in assay [1], 3.16 to 31.6 nM on C. elegans Slo-1a and under 0.1 µg/mL with Dirofilaria immitis. The mortality at 20 ppm in the assay on Haemonchus contortus and in the assay on Cooperia curticei was 90% in each case. Also, the mortality at 4 ppm with Cooperia curticei was found to be 90%.

For the compound `O=C(N[C@H]1CCOc2ccccc21)c1cnc2c(-c3cccc(Cl)c3Cl)ccnc2c1N1CCOCC1` [Example T3-4, 8-(2,3-Dichlorophenyl)-N-[(4S)-3,4-dihydro-2H-chromen-4-yl]-4-(morpholin-4-yl)-1,5-naphthyridine-3-carboxamide], the EC50 in assay [1] was under 0.1 µg/mL; at C. elegans Slo-1a it was under 3.16 nM; in the assay on Dirofilaria immitis, under 0.1 µg/mL; at D. immitis Slo-1 it was 3.16 to 31.6 nM. The mortality at 20 ppm in the assay with Haemonchus contortus and in the assay with Cooperia curticei was 100% in each case. Further, the mortality at 4 ppm with Cooperia curticei was found to be 100%. Further, the inhibition at 1 µg/mL in assay [2] is over 80%.

As for `COc1cnc2c(N(C)C)c(C(=O)N[C@H]3CCOc4ccccc43)cnc2c1-c1cc(F)cc(F)c1F` [Example T3-15, N-[(4S)-3,4-dihydro-2H-1-benzopyran-4-yl]-4-(dimethylamino)-7-methoxy-8-(2,3,5-trifluorophenyl)-1,5-naphthyridine-3-carboxamide], the EC50 in assay [1] was under 0.1 µg/mL; in assay [3], under 0.1 µg/mL; with Dirofilaria immitis, under 0.1 µg/mL; on D. immitis Slo-1, 3.16 to 31.6 nM. Moreover, the inhibition at 1 µg/mL in assay [2] is over 80%. In addition, the inhibition at 10 µg/mL in assay [2] is over 80%.

As for `COc1c(C(=O)N[C@H]2CCOc3ccccc32)nnc2c(-c3cc(Cl)cc(Cl)c3)cccc12` [Example T5-5, 8-(3,5-Dichlorophenyl)-N-[(4S)-3,4-dihydro-2H-chromen-4-yl]-4-methoxycinnoline-3-carboxamide], the EC50 in assay [1] was under 0.1 µg/mL; on C. elegans Slo-1a it was 3.16 to 31.6 nM; in the assay with Dirofilaria immitis it was under 0.1 µg/mL; on D. immitis Slo-1 it was 31.6 to 316 nM. Also, the mortality at 20 ppm with Haemonchus contortus and in the assay with Cooperia curticei was 80% throughout. In addition, the mortality at 4 ppm in the assay with Cooperia curticei was determined as 80%. Besides, the inhibition at 1 µg/mL in assay [2] was over 80%.

As for `CN(C)c1c(C(=O)N[C@H]2CCOc3ccccc32)cnc2c(-c3cccc(Cl)c3Cl)cnnc12` [Example T6-1, 4-(2,3-Dichlorophenyl)-N-[(4S)-3,4-dihydro-2H-chromen-4-yl]-8-(dimethylamino)pyrido[3,2-c]pyridazine-7-carboxamide], the figures for the EC50 (in assay [1]; on C. elegans Slo-1a; with Dirofilaria immitis) were under 0.1 µg/mL, 3.16 to 31.6 nM and under 0.1 µg/mL, respectively. Further, the values for the mortality at 20 ppm in the assay on Haemonchus contortus and in the assay on Cooperia curticei were 100% and 90%, respectively. The inhibition at 1 µg/mL in assay [2] was over 80%.

The record behind these values is patent US11485733B2, “Azaquinoline derivatives” (BAYER ANIMAL HEALTH GMBH, priority 2017, dated 2022).
